Results taken from PMC11689655, “High-throughput screening of dual-target inhibitors for SARS-CoV-2 main protease and papain-like protease from Chebulae Fructus: in silico prediction and experimental verification” (Frontiers in Microbiology, 2024).
Like-named read-outs stand apart in the source and are kept apart here.

Legend:
SARS-CoV-2 Omicron EG.5 = assay: Antiviral activity (CPE inhibition) in Vero E6 cells, Omicron EG.5; assay type: cell-based; settings: read-out: EC50 against Omicron EG.5 variant
SARS-CoV-2 Omicron BA.5 = assay: Antiviral activity (CPE inhibition) in Vero E6 cells, Omicron BA.5; assay type: cell-based; settings: read-out: EC50 against Omicron BA.5 variant
[1] = Severe acute respiratory syndrome coronavirus 2, Vero C1008, 48 h

Row | SMILES | EC50 (SARS-CoV-2 Omicron EG.5; [1]) | EC50 (SARS-CoV-2 Omicron BA.5; [1]) | EC50 (SARS-CoV-2 Omicron EG.5) | EC50 (SARS-CoV-2 Omicron BA.5)
1 | O=C(OC[C@H]1O[C@@H](OC(=O)c2cc(O)c(O)c(O)c2)[C@H](OC(=O)c2cc(O)c(O)c(O)c2)[C@@H](OC(=O)c2cc(O)c(O)c(O)c2)[C@@H]1O)c1cc(O)c(O)c(O)c1 [TGG, 1,2,3,6-tetra-O-galloyl-β-D-glucose] | 37.3 µM | 25.7 µM | – | –
2 | O=C(OC[C@H]1O[C@@H](OC(=O)c2cc(O)c(O)c(O)c2)[C@H](OC(=O)c2cc(O)c(O)c(O)c2)[C@@H](OC(=O)c2cc(O)c(O)c(O)c2)[C@@H]1OC(=O)c1cc(O)c(O)c(O)c1)c1cc(O)c(O)c(O)c1 [PGG, 1,2,3,4,6-penta-O-galloyl-β-D-glucose] | 15.4 µM | 3.2 µM | – | –
3 | Cn1cnc(Cn2c(=O)[nH]/c(=N\c3cc4cn(C)nc4cc3Cl)n(Cc3cc(F)c(F)cc3F)c2=O)n1 [S-217622, reference compound] | – | – | 0.06 µM | 0.09 µM
